From patent US7960409B2, “Pharmaceutical phenylquinoline and chromen-2-one triazole compounds” (Merck Sharp & Dohme Corp., priority 2007, dated 2011)

target: T1, recombinant human 5-lipoxygenase (Homo sapiens, UniProt P09917); test: Human 5-Lipoxygenase Enzyme Assay; format: biochemical; settings: spectrophotometric assay, purified recombinant human 5-lipoxygenase, 20 μM arachidonic acid
T1 construct: made in house; host or cells: Sf9 cells infected with recombinant baculovirus rvH5LO (8-1)
T1 sequence (P09917 1-674): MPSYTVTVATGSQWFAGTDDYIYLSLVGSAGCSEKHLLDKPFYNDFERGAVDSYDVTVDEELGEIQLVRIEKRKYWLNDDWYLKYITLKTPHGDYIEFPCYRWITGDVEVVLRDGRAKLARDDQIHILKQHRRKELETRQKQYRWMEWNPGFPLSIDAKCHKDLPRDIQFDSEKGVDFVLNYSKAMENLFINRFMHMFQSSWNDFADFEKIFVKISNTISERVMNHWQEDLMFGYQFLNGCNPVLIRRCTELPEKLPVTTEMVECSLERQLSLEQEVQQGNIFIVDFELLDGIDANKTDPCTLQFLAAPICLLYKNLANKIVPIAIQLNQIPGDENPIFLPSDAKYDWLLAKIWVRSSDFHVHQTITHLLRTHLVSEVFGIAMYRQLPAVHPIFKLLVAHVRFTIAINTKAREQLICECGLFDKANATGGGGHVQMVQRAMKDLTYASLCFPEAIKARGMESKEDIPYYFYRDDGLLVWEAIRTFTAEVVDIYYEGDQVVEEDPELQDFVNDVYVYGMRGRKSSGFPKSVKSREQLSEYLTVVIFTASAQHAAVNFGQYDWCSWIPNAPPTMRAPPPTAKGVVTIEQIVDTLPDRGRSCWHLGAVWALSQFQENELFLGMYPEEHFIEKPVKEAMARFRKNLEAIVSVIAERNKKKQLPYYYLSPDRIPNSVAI
Method: Compounds of this invention can be tested using the following assays to determine their mammalian leukotriene biosynthesis inhibiting activity.
Human 5-Lipoxygenase Enzyme Assay
The activity of 5-lipoxygenase was measured using a spectrophotometric assay and recombinant human 5-lipoxygenase as a source of enzyme. Human 5-lipoxygenase was purified from Sf9 cells infected with the recombinant baculovirus rvH5LO (8-1) containing the coding sequence for human 5-lipoxygenase as described by Percival et al., (Eur. J. Biochem 210, 109-117, 1992). The enzymatic activity was measured using a spectrophotometric assay from the optimal rate of conjugated diene formation (absorbance at 238 nm) using the procedure described in Riendeau et al. (Biochem. Pharmacol. 38, 2313-2321, 1989) with minor modifications. The incubation mixture contained 25 mM potassium phosphate, pH 7.5, 0.1 mM EDTA, 0.3 mM CaCl2, 24 μg/ml phosphatidylcholine, 0.1 mM ATP, 0.5 mM DTT, 20 μM arachidonic acid (2 μl from a 100-fold solution in ethanol), inhibitor (2 μl aliquot from a 100-fold solution in DMSO) and an aliquot of purified 5-lipoxygenase. Reactions were initiated by the addition of the purified 5-lipoxygenase and the rate of conjugated diene production was followed for 5 minutes at room temperature. The reaction was performed in a Costar UV plate (Cat. # 3635) and the absorbance changes at 238 nm were recorded with a Molecular Devices UV/VIS 96 well spectrophotometer (Spectra Max 190) using SOFTmax PRO software. Enzymatic activity was calculated from the optimal rate of the reaction by a linear fit of the increase in absorbance at 238 nm over 36 seconds. When the rate of diene formation is low (<0.01 Absorbance Unit/min) the linear fit is performed over 180 seconds.

In order of rising IC50:
1. CC[C@](O)(c1cn(Cc2ccc3c(-c4ccc(F)cc4)cc(N(C)C)nc3c2)nn1)C(F)(F)F [Example 87, (S)-2-(1-{[2-(dimethylamino)-4-(4-fluorophenyl)quinolin-7-yl]methyl}-1H-1,2,3-triazol-4-yl)-1,1,1-trifluorobutan-2-ol]  17 nM
2. CC[C@](O)(c1cn(Cc2ccc3c(-c4ccccc4)cc(C#N)nc3c2)nn1)C(F)(F)F [Example 39, (S)-7-({4-[1-hydroxy-1-(trifluoromethyl)propyl]-1H-1,2,3-triazol-1-yl}methyl)-4-phenylquinoline-2-carbonitrile]  34 nM
3. CC[C@](O)(c1cn(Cc2ccc3c(-c4ccccc4)cc(C(N)=O)nc3c2)nn1)C(F)(F)F [Example 69, (S)-7-({4-[1-hydroxy-1-(trifluoromethyl)propyl]-1H-1,2,3-triazol-1-yl}methyl)-4-phenylquinoline-2-carboxamide]  35 nM
4. CCCC(O)(c1cn(Cc2ccc3c(-c4cccc(F)c4)cc(=O)oc3c2)nn1)C(F)(F)F (stereo not drawn) [Example 30, 4-(3-Fluorophenyl)-7-({4-[1-hydroxy-1-(trifluoromethyl)butyl]-1H-1,2,3-triazol-1-yl}methyl)-2H-chromen-2-one]  37 nM
5. CC[C@](O)(c1cn(Cc2ccc3c(-c4cccc(F)c4)cc(=O)oc3c2)nn1)C(F)(F)F [Example 1, (S)-4-(3-fluorophenyl)-7-({4-[1-hydroxy-1-(trifluoromethyl)propyl]-1H-1,2,3-triazol-1-yl}methyl)-2H-chromen-2-one]  38 nM
6. CC[C@](O)(c1cn(Cc2ccc3c(-c4ccc(F)cc4)cc(OC)nc3c2)nn1)C(F)(F)F [Example 88, (S)-1,1-trifluoro-2-(1-{[4-(4-fluorophenyl)-2-methoxyquinolin-7-yl]methyl}-1H-1,2,3-triazol-4-yl)butan-2-ol]  41 nM
7. CC[C@](O)(c1cn(Cc2ccc3c(-c4ccccc4)cc(=O)oc3c2)nn1)C(F)(F)F [Example 5, (S)-7-[4-(1-Hydroxy-1-trifluoromethyl-propyl)-[1,2,3]triazol-1-ylmethyl]-4-phenyl-chromen-2-one]  45 nM
8. CC[C@](O)(c1cn(Cc2ccc3c(-c4ccc(F)cc4)cc(=O)oc3c2)nn1)C(F)(F)F [Example 2, (S)-4-(4-Fluorophenyl)-7-[4-(1-hydroxy-1-trifluoromethyl-propyl)-[1,2,3]triazol-1-ylmethyl]-chromen-2-one]  50 nM
9. CC[C@](O)(c1cn(Cc2ccc3c(-c4ccsc4)cc(=O)oc3c2)nn1)C(F)(F)F [Example 8, (S)-7-[4-(1-Hydroxy-1-trifluoromethyl-propyl)-[1,2,3]triazol-1-ylmethyl]-4-thiophen-3-yl-chromen-2-one]  50 nM
10. CC[C@](O)(c1cn(Cc2ccc3c(-c4ccc(F)cc4)cc(C#N)nc3c2)nn1)C(F)(F)F [Example 41, (S)-4-(4-fluorophenyl)-7-({4-[1-hydroxy-1-(trifluoromethyl)propyl]-1H-1,2,3-triazol-1-yl}methyl)quinoline-2-carbonitrile]  51 nM
11. CC[C@](O)(c1cn(Cc2ccc3c(-c4cc(F)cc(F)c4)cc(C#N)nc3c2)nn1)C(F)(F)F [Example 58, (S)-4-(3,5-difluorophenyl)-7-({4-[1-hydroxy-1-(trifluoromethyl)propyl]-1H-1,2,3-triazol-1-yl}methyl)quinoline-2-carbonitrile]  52 nM
12. CC[C@](O)(c1cn(Cc2ccc3c(-c4cccc(F)c4)cc(C#N)nc3c2)nn1)C(F)(F)F [Example 40, (S)-4-(3-fluorophenyl)-7-({4-[1-hydroxy-1-(trifluoromethyl)propyl]-1H-1,2,3-triazol-1-yl}methyl)quinoline-2-carbonitrile]  54 nM
13. N#Cc1cc(-c2cccc(F)c2)c2ccc(Cn3cc(C(O)(C4CC4)C4CC4)nn3)cc2n1 [Example 47, 7-({4-[dicyclopropyl(hydroxy)methyl]-1H-1,2,3-triazol-1-yl}methyl)-4-(3-fluorophenyl)-quinoline-2-carbonitrile]  62 nM
14. N#Cc1cc(-c2ccccc2)c2ccc(Cn3cc(C(O)(C4CC4)C4CC4)nn3)cc2n1 [Example 48, 7-({4-[dicyclopropyl(hydroxy)methyl]-1H-1,2,3-triazol-1-yl}methyl)-4-phenylquinoline-2-carbonitrile]  82 nM
15. CC[C@](O)(c1cn(Cc2ccc3c(-c4cc(Cl)cc(Cl)c4)cc(C#N)nc3c2)nn1)C(F)(F)F [Example 57, (S)-4-(3,5-dichlorophenyl)-7-({4-[1-hydroxy-1-(trifluoromethyl)propyl]-1H-1,2,3-triazol-1-yl}methyl)quinoline-2-carbonitrile]  86 nM
16. O=c1cc(-c2ccc(F)cc2)c2ccc(Cn3cc(C(O)(C4CC4)C4CC4)nn3)cc2o1 [Example 26, 7-[4-(Dicyclopropyl-hydroxy-methyl)-[1,2,3]triazol-1-ylmethyl]-4-(4-fluoro-phenyl)-chromen-2-one]  98 nM
17. N#Cc1cc(-c2ccc(F)cc2)c2ccc(Cn3cc(C(O)(C4CC4)C4CC4)nn3)cc2n1 [Example 46, 7-({4-[dicyclopropyl(hydroxy)methyl]-1H-1,2,3-triazol-1-yl}methyl)-4-(4-fluorophenyl)quinoline-2-carbonitrile]  103 nM
18. CCC(O)(CC)c1cn(Cc2ccc3c(-c4ccccc4)cc(C#N)nc3c2)nn1 [Example 43, 7-{[4-(1-ethyl-1-hydroxypropyl)-1H-1,2,3-triazol-1-yl]methyl}-4-phenylquinoline-2-carbonitrile]  275 nM
19. CCC(O)(c1nnn(Cc2ccc3c(-c4cccc(F)c4)cc(=O)oc3c2)c1C)C(F)(F)F (stereo not drawn) [Example 27, 4-(3-fluorophenyl)-7-{[4-(1-hydroxy-1-(trifluoromethyl)propyl)-5-methyl-1H-1,2,3-triazol-1-yl}methyl]-2H-chromen-2-one]  298 nM
20. CCC(O)(CC)c1cn(Cc2ccc3c(-c4cccc(F)c4)cc(=O)oc3c2)nn1 [Example 12, 7-[4-(1-Ethyl-1-hydroxy-propyl)-[1,2,3]triazol-1-ylmethyl]-4-(3-fluoro-phenyl)-chromen-2-one]  324 nM
21. CC[C@](O)(c1cn(Cc2ccc3c(-c4coc(C)n4)cc(=O)oc3c2)nn1)C(F)(F)F [Example 37, (S)-7-({4-[1-hydroxy-1-(trifluoromethyl)propyl]-1H-1,2,3-triazol-1-yl}methyl)-4-(2-methyl-1,3-oxazol-4-yl)-2H-chromen-2-one]  351 nM
22. CCC(O)(CC)c1cn(Cc2ccc3c(-c4ccc(F)cc4)cc(=O)oc3c2)nn1 [Example 16, 7-[4-(1-Ethyl-1-hydroxy-propyl)-[1,2,3]triazol-1-ylmethyl]-4-(4-fluoro-phenyl)-chromen-2-one]  442 nM
23. O=c1cc(-c2cccc(F)c2)c2ccc(Cn3cc(Cc4ccccc4)nn3)cc2o1 [Example 22, 7-[(4-benzyl-1H-1,2,3-triazol-1-yl)methyl]-4-(3-fluorophenyl)-2H-chromen-2-one]  951 nM
24. CC[C@](O)(c1cn(Cc2ccc3c(-c4ccccc4F)cc(=O)oc3c2)nn1)C(F)(F)F [Example 3, (S)-4-(2-Fluoro-phenyl)-7-[4-(1-hydroxy-1-trifluoromethyl-propyl)-[1,2,3]triazol-1-ylmethyl]-chromen-2-one]  1210 nM
